Measured values: patent US12221445B2, “Crystalline salts of 5-methyl-(6S)-tetrahydrofolic acid and amino ethyl esters” (MERCK PATENT GMBH, priority 2018, dated 2025)
Structures can show the parent of a compound that is named as a salt.

Columns and labels:
[1] = Kinetic solubility in water (one minute agitation, gravimetric evaluation); settings: for amount dissolved within one minute in 2.00 ml water: according to Example 6; for kinetic solubility (mg of 5-methyl-(6S)-tetrahydrofolic acid per mL): purified/de-ionized water, room temperature, agitated one minute, expressed as 5-methyl-(6S)-tetrahydrofolic acid
Procedure: 42.3 mg of the anhydrous form of the crystalline salt of 5-methyl-(6S)-tetrahydrofolic acid and L-phenylalanine ethyl ester according to Example 4 was weighed into a 7 mL glass vial with a screw cap. 2.00 mL of purified/de-ionized water (for instance water for chromatography) was added to the solid using an adjustable volumetric pipette. The mixture was vigorously agitated at room temperature for one minute.
The solution was filtered by centrifugal filtration and 1.50 mL of the aqueous solution was transferred into a tared glass vial (about 10 mL volume). The water was evaporated in an air dryer at 40° C. for about 15 hours, then at 50° C. for about eight hours, subsequently drying was completed at 50° C. under vacuum (10 to 20 mbar) for about 13 hours. The solubility was determined by gravimetric evaluation of the solid residue.
2.00 mL of purified/de-ionized water (for instance water for chromatography) was added to the solid using an adjustable volumetric pipette. The mixture was vigorously agitated at room temperature for one minute. […] The suspension was filtered by centrifugal filtration and 1.50 mL of the aqueous solution was transferred into a tared glass vial (about 10 mL volume). The water was evaporated in an air dryer at 40° C. for about 15 hours, then at 50° C. for about eight hours, subsequently drying was completed at 50° C. under vacuum (10 to 20 mbar) for about 13 hours. The solubility was determined by gravimetric evaluation of the solid residue.

[2] = at 50% to 60% relative humidity; listed as crystalline salt of 5-methyl-(6S)-tetrahydrofolic acid and L-methionine ethyl es
[3] = at room temperature; calcium salt; cited from earlier work
[4] = Dynamic water vapor sorption (DVS) experiment; assay type: physicochemical; settings: FIG. 3; for change of relative sample mass during DVS test: RH program 50→20→75→50%, 5% per hour; for change in water content: relative humidity range between 20% and 75%
Procedure: DVS measurements are typically performed with an SPS11-100n “Sorptions Prufsystem” from ProUmid (formerly “Projekt Messtechnik”), August-Nagel-Str. 23, 89079 Ulm (Germany).
22 mg of the salt of 5-methyl-(6S)-tetrahydrofolic acid with L-phenylalanine ethyl ester Form B according to Example 2 was weighed into an aluminum sample pan for DVS measurement. A DVS measurement was performed. For relative humidity (RH) scans, change rates of 5% per hour were used. The sample pan was placed into the instrument and a defined relative humidity change program was started according to the following steps: • (1) Maintained RH for 2 hours at 50%, then • (2) scanned RH from 50→20% at a rate of 5% per hour and maintained RH at 20% for 10 hours, then • (3) scanned RH from 20→75% at a rate of 5% per hour and maintained RH at 75% for 10 hours, then • (4) scanned RH from 75→50% RH at a rate of 5% per hour and maintained RH at 50% for two hours.

Compound: 5-methyl-(6S)-tetrahydrofolic acid L-methionine ethyl ester salt
- kinetic solubility expressed as 5-methyl-(6S)-tetrahydrofolic acid ([1]; at r.t., corresponds to mg/ml of 5-methyl-(6S)-tetrahydrofolic acid): greater than 18 mg/ml

Compound: 5-methyl-(6S)-tetrahydrofolic acid L-methionine ethyl ester salt [Example 7]
- water content [2]: below 1%

Compound: 5-methyl-(6S)-tetrahydrofolic acid L-methionine ethyl ester salt [Example 8]
- water content [2]: about 5%

Compound: 5-methyl-(6S)-tetrahydrofolic acid calcium salt [calcium salt (Form I)]
- aqueous solubility [3]: about 10 mg/ml

Compound: 5-methyl-(6S)-tetrahydrofolic acid calcium salt [calcium salt (Form III)]
- aqueous solubility [3]: about 2.5 mg/ml

Compound: CCOC(=O)[C@@H](N)Cc1ccccc1.CCOC(=O)[C@@H](N)Cc1ccccc1.CN1c2c([nH]c(N)nc2=O)NC[C@@H]1CNc1ccc(C(=O)N[C@@H](CCC(=O)O)C(=O)O)cc1 [5-methyl-(6S)-tetrahydrofolic acid L-phenylalanine ethyl ester 1:2 salt]
- amount dissolved within one minute in 2.00 ml water [1]: 11.3 mg
- improvement of kinetic solubility versus calcium salt metastable Form I ([1]; versus the known (metastable Form I) of the calcium salt): about 50%
- change of relative sample mass during DVS test [4]: less than 0.3%
- change in water content [4]: less than 0.3%

Compound: CN1c2c(nc(N)[nH]c2=O)NC[C@@H]1CNc1ccc(C(=O)N[C@@H](CCC(=O)O)C(=O)O)cc1 [5-methyl-(6S)-tetrahydrofolic acid calcium salt, reference compound]
- amount dissolved within one minute in 2.00 ml water [1]: 9.0 mg
- kinetic solubility (mg of 5-methyl-(6S)-tetrahydrofolic acid per mL) [1]: 9.0 mg per mL
- solubility kinetic at 1 min ([1]; water, thermodynamic from solid): < 10000 µg/mL
- change of relative sample mass during DVS test [4]: about 3%
- change in water content [4]: about 3%

Compound: CCOC(=O)[C@@H](N)Cc1ccccc1.CCOC(=O)[C@@H](N)Cc1ccccc1.CN1c2c([nH]c(N)nc2=O)NC[C@@H]1CNc1ccc(C(=O)N[C@@H](CCC(=O)O)C(=O)O)cc1 [Example 4, 5-methyl-(6S)-tetrahydrofolic acid L-phenylalanine ethyl ester 1:2 salt]
- kinetic solubility (mg of 5-methyl-(6S)-tetrahydrofolic acid per mL) [1]: 11.3 mg per mL
